Experiment [1] concerns the target T1, HCV NS3/4A protease complex (BMS strain) (UniProt P27958, C1454S/C1711G, species not given).
T1 construct: for H77 and J4L6S; fused on or other part: Three-lysine solubilising tail at the C-terminus of NS4A
Kind of experiment: Recombinant HCV NS3/4A protease complex FRET peptide assay. The format is biochemical, Hepatitis C virus (HCV), genotype 1a. The note with it: NS3/4A BMS strain, activity range class. The source says:
Recombinant HCV NS3/4A Protease Complex FRET Peptide Assay
Serum from an HCV-infected patient was obtained from Dr. T. Wright, San Francisco Hospital. An engineered full-length cDNA (compliment deoxyribonucleic acid) template of the HCV genome (BMS strain) was constructed from DNA fragments obtained by reverse transcription-PCR (RT-PCR) of serum RNA (ribonucleic acid) and using primers selected on the basis of homology between other genotype 1a strains.
The H77 and J4L6S strains were used for production of recombinant NS3/4A protease complexes. […] Briefly, a three-lysine solubilizing tail was added at the 3′-end of the NS4A coding region. […] Briefly, the NS3/4A protease complex expression was induced with 0.5 millimolar (mM) Isopropyl β-D-1-thiogalactopyranoside (IPTG) for 22 hours (h) at 20° C. […] The cells were resuspended in lysis buffer (10 mL/g) consisting of 25 mM N-(2-Hydroxyethyl)piperazine-N′-(2-Ethane Sulfonic acid) (HEPES), pH 7.5, 20% glycerol, 500 mM Sodium Chloride (NaCl), 0.5% Triton X-100, 1 microgram/milliliter (“μg/mL”) lysozyme, 5 mM Magnesium Chloride (MgCl2), 1 μg/ml DnaseI, 5 mM β-Mercaptoethanol (βME), Protease inhibitor—Ethylenediamine Tetraacetic acid (EDTA) free (Roche), homogenized and incubated for 20 minutes (min) at 4° C. The homogenate was sonicated and clarified by ultra-centrifugation at 235000 g for 1 h at 4° C. Imidazole was added to the supernatant to a final concentration of 15 mM and the pH adjusted to 8.0. The crude protein extract was loaded on a Nickel—Nitrilotriacetic acid (Ni-NTA) column pre-equilibrated with buffer B (25 mM HEPES, pH 8.0, 20% glycerol, 500 mM NaCl, 0.5% Triton X-100, 15 mM imidazole, 5 mM βME). The sample was loaded at a flow rate of 1 mL/min. The column was washed with 15 column volumes of buffer C (same as buffer B except with 0.2% Triton X-100). The protein was eluted with 5 column volumes of buffer D (same as buffer C except with 200 mM Imidazole).
NS3/4A protease complex-containing fractions were pooled and loaded on a desalting column Superdex-S200 pre-equilibrated with buffer D (25 mM HEPES, pH 7.5, 20% glycerol, 300 mM NaCl, 0.2% Triton X-100, 10 mM βME). Sample was loaded at a flow rate of 1 mL/min. NS3/4A protease complex-containing fractions were pooled and concentrated to approximately 0.5 mg/ml.
The enzyme was stored at −80° C., thawed on ice and diluted prior to use in assay buffer. […] The sequence of this peptide is loosely based on the NS4A/NS4B natural cleavage site for the HCV NS3 protease except there is an ester linkage rather than an amide bond at the cleavage site. The peptide substrate was incubated with one of the three recombinant NS3/4A protease complexes, in the absence or presence of a compound of the present invention, and the formation of fluorescent reaction product was followed in real time using a Cytofluor Series 4000.
The reagents were as follow: HEPES and Glycerol (Ultrapure) were obtained from GIBCO-BRL. Dimethyl Sulfoxide (DMSO) was obtained from Sigma. β-Mercaptoethanol was obtained from Bio Rad.
Assay buffer: 50 mM HEPES, pH 7.5; 0.15 M NaCl; 0.1% Triton; 15% Glycerol; 10 mM βME. Substrate: 2 μM final concentration (from a 2 mM stock solution in DMSO stored at −20° C.). HCV NS3/4A protease type 1a (1b), 2–3 nM final concentration (from a 5 μM stock solution in 25 mM HEPES, pH 7.5, 20% glycerol, 300 mM NaCl, 0.2% Triton-X100, 10 mM βME).
The assay was performed in a 96-well polystyrene black plate from Falcon.

The test system of experiment [2] is HCV replicon in Huh7 cells. Kind of experiment: microbe, parasite or virus in culture. The format is cell-based, strain 1b. The settings on record: Hepatitis C virus, Huh-7, 96 h; Huh7 cells expressing HCV replicon, 4 days; activity range class. The source says: Generation of HCV Replicon
This system enabled us to evaluate the effects of our HCV Protease compounds on HCV RNA replication. Briefly, using the HCV strain 1b sequence described in the Lohmann paper (Assession number: AJ238799), an HCV cDNA was generated encoding the 5′ internal ribosome entry site (IRES), the neomycin resistance gene, the EMCV (encephalomyocarditis viurs)-IRES and the HCV nonstructural proteins, NS3-NS5B, and 3′ non-translated region (NTR). In vitro transcripts of the cDNA were transfected into the human hepatoma cell line, Huh7. […] Resulting cell lines were characterized for positive and negative strand RNA production and protein production over time.
Huh7 cells, constitutively expressing the HCV replicon, were grown in Dulbecco's Modified Eagle Media (DMEM) containing 10% Fetal calf serum (FCS) and 1 mg/ml G418 (Gibco-BRL). Cells were seeded the night before (1.5×10^4 cells/well) in 96-well tissue-culture sterile plates. Compound and no compound controls were prepared in DMEM containing 4% FCS, 1:100 Penicillin/Streptomysin, 1:100 L-glutamine and 5% DMSO in the dilution plate (0.5% DMSO final concentration in the assay). Compound/DMSO mixes were added to the cells and incubated for 4 days at 37° C. After 4 days, plates were rinsed thoroughly with Phosphate-Buffered Saline (PBS) (3 times 150 μl). The cells were lysed with 25 μl of a lysis assay reagent containing the FRET peptide (RET S1, as described for the in vitro enzyme assay). The lysis assay reagent was made from 5× cell Luciferase cell culture lysis reagent (Promega #E153A) diluted to 1× with distilled water, NaCl added to 150 mM final, the FRET peptide diluted to 10 μM final from a 2 mM stock in 100% DMSO. The plate was then placed into the Cytofluor 4000 instrument which had been set to 340 nm excitation/490 nm emission, automatic mode for 21 cycles and the plate read in a kinetic mode. EC50 determinations were carried out as described for the IC50 determinations. […]
The percentage inhibition was calculated using the formula below: […]
The values were graphed and analyzed using XLFit to obtain the EC50 value.
(In antiviral work, replicon cells carry a viral genome segment that copies itself.)

Each structure is given as a SMILES string. Where two headings read alike, the source gives them in different places. A value given as a limit tells only on which side of the number the result lay.

For the molecule `C=C[C@@H]1C[C@]1(NC(=O)[C@@H]1C[C@@H](Oc2nc(-c3ccccc3)nc3ccccc23)CN1C(=O)[C@@H](NC(C)=O)C(C)(C)C)C(=O)NS(=O)(=O)C1(CC2CC2)CC1` [Cmpd 604], the IC50 (as a rule, the concentration that gives 50% inhibition) in experiment [1] (read-out: IC50) is below 100 nM. The half-maximal effective concentration (EC50) (in general, the concentration at which the effect is half-maximal) in experiment [2] lay in the range of 100 to 1000 nM.

Consider `C=C[C@@H]1C[C@]1(NC(=O)[C@@H]1C[C@@H](Oc2nccc3c(C(F)(F)F)cccc23)CN1C(=O)[C@@H](NC(=O)OC(C)(C)C)C(C)(C)C)C(=O)NS(=O)(=O)C1(CC)CC1` [Cpd 104], for which the IC50 in experiment [1] (read-out: IC50) was below 100 nM. In addition, the EC50 in experiment [2] is 100 to 1000 nM.

`C=C[C@@H]1C[C@]1(NC(=O)[C@@H]1C[C@@H](Oc2cc(-c3ccccc3)nc3c(C)noc23)CN1C(=O)[C@@H](NC(=O)OC(C)(C)C)C(C)(C)C)C(=O)NS(=O)(=O)C1(CCC)CC1` [Cmpd 501]: the IC50 in experiment [1] was below 100 nM. This molecule also had an EC50 in experiment [2] of 100 to 1000 nM.

Take `C=C[C@@H]1C[C@]1(NC(=O)[C@@H]1C[C@@H](Oc2nc(-c3ccccc3)nc3ccccc23)CN1C(=O)[C@@H](N)C(C)(C)C)C(=O)NS(=O)(=O)C1(CC2CC2)CC1` [Cmpd 602]: the IC50 in experiment [1] (read-out: IC50) is 100 to 1000 nM. In experiment [2], this molecule had an EC50 of 1000 to 10000 nM.

For `C=C[C@@H]1C[C@]1(NC(=O)[C@@H]1C[C@@H](Oc2nccc3ccccc23)CN1C(=O)[C@@H](NC(=O)OC(C)(C)C)C(C)(C)C)C(=O)NS(=O)(=O)C1(Cc2ccccc2)CC1` [Cmpd 401], the IC50 in experiment [1] is 100 to 1000 nM. This molecule also gave an EC50 in experiment [2] of 100 to 1000 nM.

Take `C=C[C@@H]1C[C@]1(NC(=O)[C@@H]1C[C@@H](Oc2ncc(Cl)c3cc(OC)ccc23)CN1C(=O)[C@@H](NC(=O)OC(C)(C)C)C(C)(C)C)C(=O)NS(=O)(=O)C1(CC)CC1` [Cpd 107]: the IC50 in experiment [1] (read-out: IC50) was below 100 nM. Further, the 50% effective concentration (EC50) in experiment [2] is below 100 nM.

Turning to `C=C[C@@H]1C[C@]1(NC(=O)[C@@H]1C[C@@H](Oc2ncc(Cl)c3ccccc23)CN1C(=O)[C@@H](NC(=O)OC(C)C)C(C)(C)C)C(=O)NS(=O)(=O)C1(CC)CC1` [Cpd 112], the IC50 in experiment [1] (read-out: IC50) is below 100 nM. Besides, in experiment [2], the EC50 lay in the range of 100 to 1000 nM.

Take `C=C[C@@H]1C[C@]1(NC(=O)[C@@H]1C[C@@H](Oc2nccc3ccccc23)CN1C(=O)[C@@H](NC(=O)OCC(C)(C)C)C(C)(C)C)C(=O)NS(=O)(=O)C1(Cc2ccccc2)CC1` [Cmpd 205]: the 50% inhibitory concentration (IC50) in experiment [1] (read-out: IC50) fell in the range of 100 to 1000 nM. Besides, the EC50 in experiment [2] lay in the range of 100 to 1000 nM.

As for `C=C[C@@H]1C[C@]1(NC(=O)[C@@H]1C[C@@H](Oc2cc3c(Cl)nccc3cc2OC)CN1C(=O)[C@@H](NC(=O)OC(C)(C)C)C(C)(C)C)C(=O)NS(=O)(=O)C1(CC)CC1` [Cpd 110], in experiment [1] (read-out: IC50), the IC50 was below 100 nM. In experiment [2], this molecule had an EC50 below 100 nM.

Consider `C=C[C@@H]1C[C@]1(NC(=O)[C@@H]1C[C@@H](Oc2nccc3cc(OC)ccc23)CN1C(=O)[C@@H](NC(=O)N1CCC1)C(C)(C)C)C(=O)NS(=O)(=O)C1(C)CC1` [Cmpd 220], for which the IC50 in experiment [1] (read-out: IC50) was below 100 nM. The molecule also came in with an EC50 in experiment [2] of 100 to 1000 nM.

Turning to `C=C[C@@H]1C[C@]1(NC(=O)[C@@H]1C[C@@H](Oc2nccc3c(OC)c(Cl)ccc23)CN1C(=O)[C@@H](NC(=O)OC(C)(C)C)C(C)(C)C)C(=O)NS(=O)(=O)C1(CC)CC1` [Cpd 106], the IC50 in experiment [1] (read-out: IC50) is below 100 nM. In experiment [2], this molecule returned an EC50 below 100 nM.

For the molecule `C=C[C@@H]1C[C@]1(NC(=O)[C@@H]1C[C@@H](Oc2nc(-c3ccccc3)nc3ccccc23)CN1C(=O)[C@@H](NC(=O)OC(C)(C)C)C(C)(C)C)C(=O)NS(=O)(=O)C1(Cc2ccccc2)CC1` [Cmpd 601], the IC50 in experiment [1] (read-out: IC50) is below 100 nM. In addition, the EC50 in experiment [2] is 100 to 1000 nM.

With `C=C[C@@H]1C[C@]1(NC(=O)[C@@H]1C[C@@H](Oc2nccc3c(Cl)cccc23)CN1C(=O)[C@@H](NC(=O)OC(C)C)C(C)(C)C)C(=O)NS(=O)(=O)C1(CC)CC1` [Cpd 111], the IC50 in experiment [1] (read-out: IC50) is below 100 nM. Moreover, the EC50 in experiment [2] was below 100 nM.

For the molecule `C=C[C@@H]1C[C@]1(NC(=O)[C@@H]1C[C@@H](Oc2nccc3c(Cl)c(OC)ccc23)CN1C(=O)[C@@H](NC(=O)OC(C)(C)C)C(C)(C)C)C(=O)NS(=O)(=O)C1(CC)CC1` [Cpd 105], the half-maximal inhibitory concentration (IC50) in experiment [1] (read-out: IC50) was below 100 nM. Also, in experiment [2], the EC50 was below 100 nM.

For the molecule `C=C[C@@H]1C[C@]1(NC(=O)[C@@H]1C[C@@H](Oc2nccc3cc(OC)ccc23)CN1C(=O)[C@@H](NC(=O)NC1CCCC1)C(C)(C)C)C(=O)NS(=O)(=O)C1(C)CC1` [Cmpd 218], the IC50 in experiment [1] (read-out: IC50) is below 100 nM. In addition, in experiment [2], the EC50 was below 100 nM.

Turning to `C=C[C@@H]1C[C@]1(NC(=O)[C@@H]1CC(Oc2ccnc(-c3cccs3)c2)CN1C(=O)[C@@H](NC(=O)OC1CCCC1)C(C)(C)C)C(=O)NS(=O)(=O)C1(CC2CC2)CC1` (some centres unmarked) [Cmpd 700], in experiment [1] (read-out: IC50), the IC50 was below 100 nM. The EC50 in experiment [2] is below 100 nM.

On to `C=C[C@@H]1C[C@]1(NC(=O)[C@@H]1C[C@@H](Oc2nccc3c(Cl)cccc23)CN1C(=O)[C@@H](NC(=O)OC(C)(C)C)C(C)(C)C)C(=O)NS(=O)(=O)C1(CC)CC1` [Cpd 101], for which, in experiment [1] (read-out: IC50), the concentration for half-maximal inhibition (IC50) was below 100 nM. For the same molecule, the EC50 in experiment [2] is below 100 nM.

Regarding `C=C[C@@H]1C[C@]1(NC(=O)[C@@H]1C[C@@H](Oc2nccc3cc(OC)ccc23)CN1C(=O)[C@@H](NC(=O)OC(C)(C)C)C(C)(C)C)C(=O)NS(=O)(=O)C1(Cc2ccccc2)CC1` [Cmpd 303, {1-[2-[1-(1-Benzyl-cyclopropanesulfonylaminocarbonyl)-2-vinyl-cyclopropylcarbamoyl]-4-(6-methoxy-isoquinolin-1-yloxy)-pyrrolidine-1-carbonyl]-2,2-dimethyl-propyl}-carbamic acid tert-butyl ester], the IC50 in experiment [1] (read-out: IC50) lay within 100 to 1000 nM. In experiment [2], this molecule yielded an EC50 of 100 to 1000 nM.

Turning to `C=C[C@@H]1C[C@]1(NC(=O)[C@@H]1C[C@@H](Oc2nccc3c(OC)cccc23)CN1C(=O)[C@@H](NC(=O)OC(C)(C)C)C(C)(C)C)C(=O)NS(=O)(=O)C1(CC)CC1` [Cpd 100], the IC50 in experiment [1] is below 100 nM. For the same molecule, in experiment [2], the concentration giving a half-maximal response (EC50) was below 100 nM.

These data come from US7135462B2, “Hepatitis C virus inhibitors” (priority 2003, dated 2006).
